IC50 data for 43 molecules are collected here from patent US20260132127A1, “NOVEL SPIRO COMPOUND” (MITSUBISHI TANABE PHARMA CORPORATION, priority 2021, published 2026).

Each structure is given as a SMILES string.

Broadly, the IC50 is the point on the concentration scale where inhibition reaches its midpoint.

The target of this assay is T1, human TRH-DE (Homo sapiens, UniProt Q9UKU6).
T1 construct: expressed in transfected cells; host or cells: Expi 293 cells (transient expression), membrane fraction
T1 sequence (Q9UKU6 1-1069): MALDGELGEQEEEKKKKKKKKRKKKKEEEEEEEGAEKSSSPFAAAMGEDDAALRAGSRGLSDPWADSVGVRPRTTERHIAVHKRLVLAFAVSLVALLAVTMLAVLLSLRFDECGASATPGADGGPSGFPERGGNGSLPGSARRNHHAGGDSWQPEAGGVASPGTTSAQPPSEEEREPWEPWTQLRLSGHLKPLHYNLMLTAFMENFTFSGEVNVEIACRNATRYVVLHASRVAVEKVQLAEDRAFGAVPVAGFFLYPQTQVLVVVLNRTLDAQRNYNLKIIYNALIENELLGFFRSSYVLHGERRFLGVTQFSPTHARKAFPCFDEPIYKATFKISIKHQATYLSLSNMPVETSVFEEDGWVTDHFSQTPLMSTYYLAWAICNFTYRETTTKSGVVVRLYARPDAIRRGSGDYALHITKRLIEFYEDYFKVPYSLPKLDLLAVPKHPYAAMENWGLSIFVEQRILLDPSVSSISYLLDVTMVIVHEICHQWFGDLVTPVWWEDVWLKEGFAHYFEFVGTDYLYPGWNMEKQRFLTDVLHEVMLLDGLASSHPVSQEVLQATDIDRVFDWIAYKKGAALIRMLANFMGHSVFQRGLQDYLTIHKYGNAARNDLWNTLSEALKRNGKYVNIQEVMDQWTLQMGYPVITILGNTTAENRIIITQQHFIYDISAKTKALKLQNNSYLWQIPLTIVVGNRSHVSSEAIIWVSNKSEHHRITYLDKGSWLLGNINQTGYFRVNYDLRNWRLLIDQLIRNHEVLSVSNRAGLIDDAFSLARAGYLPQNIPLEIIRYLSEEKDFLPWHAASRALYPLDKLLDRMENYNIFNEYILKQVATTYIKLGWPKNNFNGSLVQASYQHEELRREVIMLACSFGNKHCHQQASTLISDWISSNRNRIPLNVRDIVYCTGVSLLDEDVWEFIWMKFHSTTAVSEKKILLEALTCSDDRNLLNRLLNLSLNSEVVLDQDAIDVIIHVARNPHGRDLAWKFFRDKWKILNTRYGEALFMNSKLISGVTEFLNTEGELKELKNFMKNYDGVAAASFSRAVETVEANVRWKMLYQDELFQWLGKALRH
In words: TRH-DE inhibition test (RapidFire MS measurement of product Cyclo (His-Pro)). The note with it: membrane fraction of Expi 293 cells expressing human TRH-DE; 10 μM TRH substrate; room temperature, 2 hours; 16-point concentration test. The assay is classed as biochemical. The method in brief: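 Membrane fraction from Expi 293 cells transiently expressing human TRH-DE, at 4 μg/ml in phosphate buffer pH 7.4 with 200 μM bacitracin, reacted with compound and 10 μM substrate for 2 h at room temperature. Cyclo(His-Pro) measured by RapidFire MS against an isotope internal standard. IC50 from 16-point curves.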

Molecule `CC1COc2ccnc(F)c2C(=O)N1C1CC2(C1)CN(S(=O)(=O)c1ccccc1F)C2` (racemic) [Example 20] returned an IC50 of 17 nM.
With `CC1CCc2ncc(F)cc2C(=O)N1C1CC2(C1)CN(S(=O)(=O)c1ccccc1F)C2` (racemic) [Example 88] the figure was 147 nM.
With `C[C@@H]1COc2nc(N3[C@@H]4CCC[C@H]3COC4)ncc2C(=O)N1C1CC2(C1)CN(S(=O)(=O)c1ccccc1F)C2` [Example 390] the figure was 11 nM.
For `C[C@@H]1COc2nc(C(F)(F)F)ccc2C(=O)N1C1CC2(C1)CN(S(=O)(=O)c1ccccc1[N+](=O)[O-])C2` [Example 57] the value was 253 nM.
On to `COCCCN1C[C@@H](C)N(C2CC3(C2)CN(S(=O)(=O)c2ccccc2F)C3)C(=O)c2ncccc21` [Example 246], for which the IC50 was 22 nM.
With `C[C@@H]1CCn2c(cnc2C2CC2)C(=O)N1C1CC2(C1)CN(S(=O)(=O)c1ccccc1F)C2` [Example 322] the figure was 7 nM; with `Cc1ccc(F)c(S(=O)(=O)N2CC3(CC(N4C(=O)c5cccnc5OCC4C)C3)C2)c1` (stereo not shown) [Example 70, 4-[2-(2-fluoro-5-methyl-phenyl)sulfonyl-2-azaspiro[3.3]heptan-6-yl]-3-methyl-2,3-dihydropyrido[3,2-f][1,4]oxazepin-5-one], 25 nM.
In turn, `CC1Cc2nc(C(F)(F)F)ccc2C(=O)N1C1CC2(C1)CN(S(=O)(=O)c1ccccc1F)C2` (single isomer, unassigned) [Example 356] displayed an IC50 of 44 nM.
Regarding `Cc1nc2c(s1)C(C)N(C1CC3(C1)CN(S(=O)(=O)c1ccccc1F)C3)C2=O` (stereo not shown) [Example 347], the IC50 was found to be 185 nM.
For `CCC1c2ccccc2C(=O)N1C1CC2(C1)CN(S(=O)(=O)c1ccccc1F)C2` (racemic) [Example 271] the value was 24 nM.
With `COc1ccc2c(n1)OC[C@@H](C)N(C1CC3(C1)CN(S(=O)(=O)c1ccccc1F)C3)C2=O` [Example 163, (3R)-4-[2-(2-fluorophenyl)sulfonyl-2-azaspiro[3.3]heptan-6-yl]-8-methoxy-3-methyl-2,3-dihydropyrido[3,2-f][1,4]oxazepin-5-one] the figure was 8 nM; with `Cc1ccc2c(n1)C(=O)N(C1CC3(C1)CN(S(=O)(=O)c1ccccc1F)C3)C(C)CO2` (racemic) [Example 14], 24 nM.
With `C[C@@H]1COc2nc(C3CC3)ccc2C(=O)N1C1CC2(C1)CN(S(=O)(=O)c1ccccc1[N+](=O)[O-])C2` [Example 55] the figure was 54 nM; with `CCOc1ncc2c(n1)OC[C@@H](C)N(C1CC3(C1)CN(S(=O)(=O)c1ccccc1F)C3)C2=O` [Example 374], 8 nM; with `C[C@@H]1COc2cc(N3CCN(C)CC3)ncc2C(=O)N1C1CC2(C1)CN(S(=O)(=O)c1ccccc1F)C2` [Example 158], 6 nM.
With `C[C@@H]1COc2nc(N3CCOC(C(F)(F)F)C3)ncc2C(=O)N1C1CC2(C1)CN(S(=O)(=O)c1ccccc1F)C2` (mixture of isomers) [Example 385], the IC50 is 13 nM.
On to `C[C@@H]1COc2ccc(Cl)nc2C(=O)N1C1CC2(C1)CN(S(=O)(=O)c1ccccc1F)C2` [Example 12], for which the IC50 was determined as 9 nM.
For `CC1C=C(F)c2ncccc2C(=O)N1C1CC2(C1)CN(S(=O)(=O)c1ccccc1F)C2` (stereo not shown) [Example 301, 9-fluoro-6-[2-(2-fluorophenyl)sulfonyl-2-azaspiro[3.3]heptan-6-yl]-7-methyl-7H-pyrido[3,2-c]azepin-5-one] the value was 91 nM.
With `CC1COc2cccnc2C(=O)N1C1CC2(C1)CN(S(=O)(=O)c1ccccc1F)C2` (single isomer, unassigned) [Example 348] the figure was 5 nM; with `CC1c2ccncc2C(=O)N1C1CC2(C1)CN(S(=O)(=O)c1ccccc1F)C2` (stereo not shown) [Example 296, 2-[2-(2-fluorophenyl)sulfonyl-2-azaspiro[3.3]heptan-6-yl]-1-methyl-1H-pyrrolo[3,4-c]pyridin-3-one], 419 nM; with `C[C@@H]1COc2cc(N3CCCCC3)ncc2C(=O)N1C1CC2(C1)CN(S(=O)(=O)c1ccccc1F)C2` [Example 149], 1 nM.
`C[C@@H]1COc2nc(N3C[C@H]4C[C@@H]3CO4)ncc2C(=O)N1C1CC2(C1)CN(S(=O)(=O)c1ccccc1F)C2` [Example 396] yielded an IC50 of 5 nM.
With `CCC1(O)c2ccccc2C(=O)N1C1CC2(C1)CN(S(=O)(=O)c1ccccc1F)C2` (racemic) [Example 286] the figure was 213 nM; with `C[C@@H]1COc2nc(C(F)(F)F)ccc2C(=O)N1C1CC2(C1)CN(S(=O)(=O)c1ccccc1F)C2` [Example 56], 8 nM; with `CC1COc2ncccc2C(=O)N1C1CC2(C1)CN(S(=O)(=O)c1cccc(F)c1)C2` (racemic) [Example 72], 841 nM.
With `Cc1cnc2c(c1)C(C)(O)N(C1CC3(C1)CN(S(=O)(=O)c1ccccc1F)C3)C2=O` (racemic) [Example 280] the figure was 89 nM; with `C[C@@H]1COc2cc(C3CC3)ncc2C(=O)N1C1CC2(C1)CN(S(=O)(=O)c1ccccc1F)C2` [Example 313], 1 nM.
For `Cc1snc2c1CC[C@@H](C)N(C1CC3(C1)CN(S(=O)(=O)c1ccccc1F)C3)C2=O` [Example 99] the value was 16 nM; for `C[C@@H]1Cn2nc(C3(C(F)(F)F)CC3)cc2C(=O)N1C1CC2(C1)CN(S(=O)(=O)c1ccccc1F)C2` [Example 227], 9 nM.
As for `C[C@@H]1COc2nc(N3CCCC34CCOC4)ncc2C(=O)N1C1CC2(C1)CN(S(=O)(=O)c1ccccc1F)C2` (mixture of isomers) [Example 406], the IC50 was 6 nM.
With `C[C@@H]1COc2c(noc2C2CC2)C(=O)N1C1CC2(C1)CN(S(=O)(=O)c1ccccc1F)C2` [Example 325] the figure was 17 nM; with `CC1CCC(=O)N(C2CC3(C2)CN(S(=O)(=O)c2ccccc2F)C3)C(C)C1` (racemic) [Example 438], 126 nM.
For `CCCN(C(=O)c1cccnc1OC)C1CC2(C1)CN(S(=O)(=O)c1ccccc1)C2` [Example 423, N-[2-(benzenesulfonyl)-2-azaspiro[3.3]heptan-6-yl]-2-methoxy-N-propylpyridine-3-carboxamide] the value was 974 nM; for `Cc1nc2c(s1)C(=O)N(C1CC3(C1)CN(S(=O)(=O)c1ccccc1F)C3)[C@H](C)CC2` [Example 90], 23 nM.
With `CC1CCc2nc(C3CC3)sc2C(=O)N1C1CC2(C1)CN(S(=O)(=O)c1ccccc1F)C2` (racemic) [Example 93] the figure was 4 nM; with `CC1c2cc(C(F)(F)F)cnc2C(=O)N(C2CC3(C2)CN(S(=O)(=O)c2ccccc2F)C3)C1C` (racemic) [Example 106], 14 nM; with `C[C@@H]1COc2c(c(C3CC3)nn2C2CC2)C(=O)N1C1CC2(C1)CN(S(=O)(=O)c1ccccc1F)C2` [Example 208], 14 nM.
`C[C@@H]1COc2nc([C@H]3C[C@H]3F)sc2C(=O)N1C1CC2(C1)CN(S(=O)(=O)c1ccccc1F)C2` [Example 234, (6R)-2-[(1S,2R)-2-fluorocyclopropyl]-7-[2-(2-fluorophenyl)sulfonyl-2-azaspiro[3.3]heptan-6-yl]-6-methyl-5,6-dihydrothiazolo[5,4-f][1,4]oxazepin-8-one] registered an IC50 of 4 nM.
With `C[C@@H]1COc2cc(N(C)c3ccc(F)cc3)ncc2C(=O)N1C1CC2(C1)CN(S(=O)(=O)c1ccccc1F)C2` [Example 141] the figure was 1 nM; with `Cc1ccnc2c1OCC(C)N(C1CC3(C1)CN(S(=O)(=O)c1ccccc1F)C3)C2=O` (racemic) [Example 16], 20 nM.
With `C[C@@H]1COc2nc(N3CC(C(F)(F)F)C3)ncc2C(=O)N1C1CC2(C1)CN(S(=O)(=O)c1ccccc1F)C2` [Example 404], the IC50 was 4 nM.
With `C[C@@H]1COc2cc(N3CCCC3)ncc2C(=O)N1C1CC2(C1)CN(S(=O)(=O)c1ccccc1F)C2` [Example 142] the figure was 1 nM; with `CC1Cc2cc(C(F)(F)F)ncc2C(=O)N1C1CC2(C1)CN(S(=O)(=O)c1ccccc1F)C2` (stereo not shown) [Example 343, 2-[2-(2-fluorophenyl)sulfonyl-2-azaspiro[3.3]heptan-6-yl]-3-methyl-6-(trifluoromethyl)-3,4-dihydro-2,7-naphthyridin-1-one], 18 nM.
